Values quoted from earlier work, collected in patent US11497789B2, “Formulations of vancomycin” (SciDose Pharma LLC, priority 2016, dated 2022).

Details: after reconstitution of the lyophilized product

Structure (SMILES): CN[C@H](CC(C)C)C(=O)N[C@H]1C(=O)N[C@@H](CC(N)=O)C(=O)N[C@H]2C(=O)N[C@H]3C(=O)N[C@H](C(=O)N[C@H](C(=O)O)c4cc(O)cc(O)c4-c4cc3ccc4O)[C@H](O)c3ccc(c(Cl)c3)Oc3cc2cc(c3O[C@@H]2O[C@H](CO)[C@@H](O)[C@H](O)[C@H]2O[C@H]2C[C@](C)(N)[C@H](O)[C@H](C)O2)Oc2ccc(cc2Cl)[C@H]1O [Vancomycin]
- time stable in water after reconstitution: approximately 24 hours
